According to patent US9284322B2, “Nicotinic receptor compounds” (priority 2010, dated 2016):
Structures can show the parent of a compound that is named as a salt. Where two headings read alike, the source gives them in different places.

Legend:
[1] = molecular target: homomeric nAChRs containing the alpha7 subunit (α7) (Rattus norvegicus (Rat), UniProt Q05941); assay: biochemical; format: binding
[2] = system: mice; assay: animal or person; format: in vivo, mouse; settings: for ED50 Tail Flick / Tail Flick, % effect at dose (ED50 column): mice, s.c.; for ED50 Tail Flick: tested 5 min after injection; for Tail Flick, % effect at dose (ED50 column): @ 10 mg/kg; for ED50: Mus musculus, sc, 5 min, read-out: ED50 Tail Flick
Procedure: (§1) Antinociception was assessed by the tail-flick method of F. E. D'Amour and D. L. Smith (J. Pharmacol. Exp. Ther. 1941, 72, 74-79). A control response (2-4 sec) was determined for each mouse before treatment, and a test latency was determined after drug administration. In order to minimize tissue damage, a maximum latency of 10 sec was imposed. Antinociceptive response was calculated as percent maximum possible effect (% MPE), where % MPE=[(test−control)/(10−control)]×100. Groups of eight to twelve animals were used for each dose and for each treatment. […] Eight to twelve mice were treated per dose and a minimum of four doses were performed for dose-response curve determination.

[3] = system: mice; format: in vivo, mouse; settings: for AD50 Hot Plate: antagonist test
Procedure: (§2) Mice were placed into a 10 cm wide glass cylinder on a hot plate (Thermojust Apparatus) maintained at 55.0° C. Two control latencies at least […] apart were determined for each mouse. […] Antinociceptive response was calculated as percent maximum possible effect (% MPE), where % MPE=[(test−control)/40−control)×100]. The reaction time was scored when the animal jumped or licked its paws.
(§3) Table 6 provides data for a number of compounds of the invention that were tested according to the assays described above.

[4] = system: mice; assay: animal or person; format: in vivo, mouse; settings: for ED50 Hot Plate / Hot Plate, % effect at dose (ED50 column): mice, s.c.; for ED50 Hot Plate: tested 5 min after injection; for Hot Plate, % effect at dose (ED50 column): @ 10 mg/kg; for ED50: Mus musculus, sc, 5 min, read-out: ED50 Hot Plate
Procedure: Mice were placed into a 10 cm wide glass cylinder on a hot plate (Thermojust Apparatus) maintained at 55.0° C. Two control latencies at least […] apart were determined for each mouse. The normal latency (reaction time) was 8 to 12 sec. Antinociceptive response was calculated as percent maximum possible effect (% MPE), where % MPE=[(test−control)/40−control)×100]. The reaction time was scored when the animal jumped or licked its paws.

[5] = system: mice; assay: animal or person; format: in vivo, mouse; settings: for ED50: Mus musculus, sc, read-out: ED50 Spontaneous Activity
Procedure: (§4) Interruptions of the photocell beams (two banks of eight cells each) were then recorded for the next 10 min. Data were expressed as number of photocell interruptions.

[6] = system: mice; assay: animal or person; format: in vivo, mouse; settings: for ED50: Mus musculus, sc, 0.5 h, read-out: ED50 Hypothermia
Procedure: Rectal temperature was measured by a thermistor probe (inserted 24 mm) and digital thermometer (Yellow Springs Instrument Co., Yellow Springs, Ohio). […] The difference in rectal temperature before and after treatment was calculated for each mouse. The ambient temperature of the laboratory varied from 21-24° C. from day to day.

[7] = system: mice; format: in vivo, mouse; settings: for AD50 Tail Flick / Tail Flick, % effect at dose: mice; for AD50 Tail Flick: antagonist test; for Tail Flick, % effect at dose: @ 100 μg/kg
Procedure: as §1, §3

[8] = molecular target: heteromeric nAChRs containing alpha and beta subunits (αβ; alpha4 beta2 predominant) (Rattus norvegicus, UniProt P09483+P12390); format: binding; settings: read-out: αβ [3H]Epibatidine (Ki)
Procedure: The alpha4 beta2 subtype is the predominant nAChR present in brain tissue used in this assay.
Adult male rat cerebral cortices (Pelfreeze Biological, Rogers, Ark.) were homogenized in 39 volumes of ice-cold 50 mM Tris buffer (pH 7.4 at 4° C.) containing 120 mM NaCl, 5 mM KCl, 2 mM CaCl2, and 1 mM MgCl2 and sedimented at 37,000 g for 10 min at 4° C. The supernatant was discarded, the pellet resuspended in the original volume of buffer, and the wash procedure repeated twice more. After the last centrifugation, the pellet was resuspended in 1/10 its original homogenization volume and stored at −80° C. until needed. […] After a 4-h incubation period at room temperature, the samples were vacuum-filtered over GF/B filter papers presoaked in 0.03% polyethylenimine using a Brandel 48-well harvester and washed with 6 mL of ice-cold buffer. The amount of radioactivity trapped on the filter was determined by standard liquid scintillation techniques in a TriCarb 2200 scintillation counter (Packard Instruments, Meriden, Conn.) at approximately 50% efficiency. The binding data were fit using the nonlinear regression analysis routines in Prism (Graphpad, San Diego, Calif.). The Ki values for the test compounds were calculated from their respective IC50 values using the Cheng-Prusoff equation.

[9] = system: mice; assay: Functional agonist tests (nAChR animal assays); settings: mouse, in vivo
Procedure: as §1, §2, §4
Rectal temperature was measured by a thermistor probe (inserted 24 mm) and digital thermometer (Yellow Springs Instrument Co., Yellow Springs, Ohio). […]

[10] = rat cerebral cortex homogenate, 40-50 pM [125I]MLA, read-out: α7 [125I]iodoMLA (Ki)
[11] = mice, s.c., 5 min after administration, recorded for 10 min
[12] = mice, s.c., rectal temperature 30 min after injection

homomeric nAChRs containing the alpha7 subunit (α7), sequence (Q05941 23-502 limits assumed): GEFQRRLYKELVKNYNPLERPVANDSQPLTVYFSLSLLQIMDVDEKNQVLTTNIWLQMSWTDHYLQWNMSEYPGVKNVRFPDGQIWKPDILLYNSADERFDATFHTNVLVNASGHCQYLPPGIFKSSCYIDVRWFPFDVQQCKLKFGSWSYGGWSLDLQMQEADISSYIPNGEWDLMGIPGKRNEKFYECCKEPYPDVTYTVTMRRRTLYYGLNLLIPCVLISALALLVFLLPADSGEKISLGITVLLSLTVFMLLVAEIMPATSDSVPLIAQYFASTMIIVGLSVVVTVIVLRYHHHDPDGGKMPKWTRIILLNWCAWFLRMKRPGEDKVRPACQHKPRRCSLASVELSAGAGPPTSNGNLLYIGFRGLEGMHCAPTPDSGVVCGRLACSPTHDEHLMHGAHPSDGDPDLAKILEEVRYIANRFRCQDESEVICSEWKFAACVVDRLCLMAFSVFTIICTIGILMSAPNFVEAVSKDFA

| Compound | Ki [1, 10] [nM] | ED50 Spontaneous Activity [5, 11] | ED50 Hypothermia [6, 12] | AD50 Tail Flick [7] | Ki [8] [nM] | Tail Flick, % effect at dose (ED50 column) [2] [% @ 10] | Hot Plate, % effect at dose (ED50 column) [4] [% @ 10] | further results |
| --- | --- | --- | --- | --- | --- | --- | --- | --- |
| Fc1ncc(C2CC3CCC2N3)cc1-c1cccnc1 (centres unmarked) | 5500 ± 1420 | 0.69 (0.4-12.8) mg/kg | 3.7 (2.9-4.5) mg/kg | 3 (0.5-24) μg/kg | 0.35 ± 0.038 |  |  | ED50 Tail Flick [2]: 4.9 (3.6-6.7) mg/kg; Hot Plate, % effect at dose ([3]; @ 1000 μg/kg): 10% @ 1000; ED50 Hot Plate [4]: 5 (3.7-6.7) mg/kg |
| Fc1ccc(-c2cc(C3CC4CCC3N4)cnc2F)cn1 (centres unmarked) | 4850 ± 1800 | 0.38 (0.13-1.1) mg/kg | 0.68 (0.52-1.1) mg/kg |  | 0.049 ± 0.02 |  |  | ED50 Tail Flick [2]: 3.6 (2.7-4.7) mg/kg; Hot Plate, % effect at dose ([3]; @ 100 μg/kg): 1% @ 100; ED50 Hot Plate [4]: 3.27 (2.1-5.3) mg/kg; Tail Flick, % effect at dose [7]: 1% @ 100 |
| Fc1ncc(C2CC3CCC2N3)cc1-c1ccc(Cl)nc1 (centres unmarked) | 6600 ± 731 | 1.58 (0.5-4.4) mg/kg | 3.11 (1.5-5.1) mg/kg | 9 (2-38) μg/kg | 0.063 ± 0.08 | 10 | 27 | AD50 Hot Plate [3]: 2001 (297-3610) μg/kg |
| Nc1ccc(-c2cc(C3CC4CCC3N4)cnc2F)cn1 (centres unmarked) | 1470 ± 203 | 1.84 (0.5-6.3) mg/kg | 2.8 (2-3.8) mg/kg | 30 (3-35) μg/kg | 0.25 ± 0.033 | 5 | 8 | Hot Plate, % effect at dose ([3]; @ 10 μg/kg): 50% @ 10 |
| COc1ccc(-c2cc(C3CC4CCC3N4)cnc2F)cn1 (centres unmarked) | 524 ± 110 | 0.53 (0.19-1.1) mg/kg | 0.77 (0.51-1.2) mg/kg | 21 (3-125) μg/kg | 0.13 ± 0.027 |  |  | ED50 Tail Flick [2]: 4.22 (3-5.3) mg/kg; Hot Plate, % effect at dose ([3]; @ 100 μg/kg): 0% @ 100; ED50 Hot Plate [4]: 1.72 (0.9-3.4) mg/kg |
| Fc1ncc(C2CC3CCC2N3)cc1-c1ccncc1 (centres unmarked) | 9700 ± 2400 | 0.38 (0.2-2.7) mg/kg | 1.69 (1.1-2.6) mg/kg | 12 (10-172) μg/kg | 0.12 ± 0.03 | 13 | 40 | AD50 Hot Plate [3]: 290 (19-991) μg/kg |
| Fc1cc(-c2cc(C3CC4CCC3N4)cnc2F)ccn1 (centres unmarked) | 7300 ± 150 | 0.17 (0.08-1.5) mg/kg | 1.58 (0.97-2.1) mg/kg | 4 (0.1-70) μg/kg | 0.067 ± 0.01 | 5 | 18 | AD50 Hot Plate [3]: 117 (110-1100) μg/kg |
| Fc1ncc(C2CC3CCC2N3)cc1-c1ccnc(Cl)c1 (centres unmarked) | > 10000 | 1.01 (0.27-3.7) mg/kg | 2.74 (1.89-3.5) mg/kg | 320 (45-3262) μg/kg | 1.18 ± 0.14 | 11 | 19 | AD50 Hot Plate [3]: 1370 (180-1430) μg/kg |
| Nc1cc(-c2cc(C3CC4CCC3N4)cnc2F)ccn1 (centres unmarked) | 719 ± 101 | 0.61 (0.04-9.1) mg/kg | 1.87 (0.1-3.5) mg/kg | 9 (0.4-19) μg/kg | 0.13 ± 0.005 | 11 | 12 | Hot Plate, % effect at dose ([3]; @ 10,000 μg/kg): 10% @ 10,000 |
| COc1cc(-c2cc(C3CC4CCC3N4)cnc2F)ccn1 (centres unmarked) | 7900 ± 1080 |  |  |  | 0.04 ± 0.012 |  |  |  |
| Fc1cc(-c2cncc(C3CC4CCC3N4)c2)ccn1 (centres unmarked) (as salt: fumarate) |  |  |  |  |  |  |  | melting point: 210 to 214 °C |
| COc1cc(-c2cncc(C3CC4CCC3N4)c2)ccn1 (centres unmarked) (as salt: fumarate) |  |  |  |  |  |  |  | melting point: 160 to 164 °C |
| Fc1ncc(C2CC3CCC2N3)cc1-c1cncnc1 (stereo not drawn) (as salt: fumarate) [2-exo-2′-Fluoro-3′-(pyrimidin-5-yl)deschloroepibatidine fumarate] |  |  |  |  |  |  |  | melting point: 160 to 163 °C |
| Clc1ncc(C2CC3CCC2N3)cc1-c1cncnc1 (stereo not drawn) (as salt: fumarate) [Cl, 2-exo-2′-Chloro-3′-(pyrimidin-5-yl)deschloroepibatidine fumarate] |  |  |  |  |  |  |  | melting point: 199 to 203 °C |
| c1ncc(-c2cncc(C3CC4CCC3N4)c2)cn1 (stereo not drawn) (as salt: fumarate) [H, 2-exo-3′-(Pyrimidin-5-yl)deschloroepibatidine fumarate] |  |  |  |  |  |  |  | melting point: 172 to 176 °C |
| Clc1ccc(C2CC3CCC2N3)cn1 (single isomer, unassigned; (-)) [(−)-epibatidine, reference compound] |  |  |  |  |  |  |  | ED50 [4]: 0.004 mg/kg |
| Clc1ncc(C2CC3CCC2N3)cc1-c1cncnc1 (stereo not drawn) [Cl, 2-exo-2′-Chloro-3′-(pyrimidin-5-yl)deschloroepibatidine fumarate] |  |  |  |  |  |  |  | Ki [1]: 170 ± 64 nM; ED50 [2]: 0.28 mg/kg; Hot Plate, % effect at dose ([3]; @ 100 μg/kg): 2% @ 100; ED50 [4]: 0.25 mg/kg; ED50 [5]: 0.027 mg/kg; ED50 [6]: 0.03 mg/kg; Tail Flick, % effect at dose [7]: 5% @ 100 |
| Fc1ncc(C2CC3CCC2N3)cc1-c1cncnc1 (stereo not drawn) [F, 2-exo-2′-Fluoro-3′-(pyrimidin-5-yl)deschloroepibatidine fumarate] |  |  |  | 0.24 µg/kg |  |  |  | Ki [1]: 1930 nM; ED50 [2]: 2.15 mg/kg; Hot Plate, % effect at dose ([3]; @ 100 μg/kg): 33% @ 100; ED50 [4]: 1.2 mg/kg; ED50 [5]: 0.15 mg/kg; ED50 [6]: 0.25 mg/kg |
| c1ncc(-c2cncc(C3CC4CCC3N4)c2)cn1 (stereo not drawn) [H, 2-exo-3′-(Pyrimidin-5-yl)deschloroepibatidine fumarate] |  |  |  |  |  |  |  | Ki [1]: 32.5 ± 1.3 nM; ED50 [2]: 1.5 mg/kg; Hot Plate, % effect at dose ([3]; @ 100 μg/kg): 0% @ 100; ED50 [4]: 1.63 mg/kg; ED50 [5]: 0.32 mg/kg; ED50 [6]: 0.6 mg/kg; Tail Flick, % effect at dose [7]: 15% @ 100 |
| CN1CCCC1c1cccnc1 (centres unmarked) [Nicotine, reference compound] |  |  |  |  |  |  |  | ED50 [2]: 1.3 mg/kg; ED50 [4]: 0.65 mg/kg; ED50 [5]: 0.5 mg/kg; ED50 [6]: 1 mg/kg |
| c1cnc2cc3c(cc2n1)[C@@H]1CNC[C@H]3C1 [varenicline, reference compound] |  |  |  | 0.2 µg/kg |  | 11 | 10 | activity in one or more of the functional agonist tests (in words) [9]: partial agonists; AD50 Hot Plate [3]: 470 µg/kg; ED50 [5, 11]: 2.1 mg/kg; ED50 [6, 12]: 2.8 mg/kg; functional antagonism in the tail-flick test (in words) ([7]; mouse, in vivo): functional antagonists |
